Here are results for five molecules from patent US9683014B2, “Dipeptide mimetics of NGF and BDNF neurotrophins” (UCHREZHDENIE ROSSIISKOI AKADEMII MEDITSYNSKIKH NAUK …, priority 2009, dated 2017).

Peptide text beside a SMILES is read from it.

Data set [1] relates to HT-22 cells. Kind of data set: Oxidative stress (H2O2) model in cultured HT-22 cells (MTT test). Conditions: added 24 hours prior to the stress exposure, 10^−8 M to 10^−5 M. Format: cell-based, mouse. On the technique in general: Tetrazolium dyes change colour on reduction, which living cells bring about.
Experimental: To induce an oxidative stress, the cells were placed in a growth medium containing 5% FBS, then a freshly prepared H2O2 solution was added to a final concentration of 1.5 mM and incubated for 30 min at 37° C. and 5% CO2. Thereafter, the medium was replaced with a new one and the cells were cultured for 4 h under the same conditions.
The determination of cell viability was carried out by MTT test. […] At the end of an experiment the growth medium was replaced with an MTT solution (0.5 mg/ml) and incubated for 30 min at 37° C. and 5% CO2. The MTT solution was then removed from the wells and DMSO was added to dissolve the formazan precipitate. Then the optical density was measured using a Multiscan (Thermo) spectrophotometer at a wavelength of 600 nm.
In the next data set the test system is Balb/c mice. Briefly: Behavioral despair test according to Porsolt. Format: in vivo, mouse. The protocol:
In order to detect a potential antidepressant activity of the peptide BDNF mimetics, the behavioral despair test was used in the original version (Porsolt R. D., Anton G., Blavet N., Jalfre M. Behavioral despair in rats: a new model sensitive to antidepressants. European Journal of Pharmacology, 1978, 47, 379-391).
For these experiments, male Balb/c mice weighing 20-22 g were used. On day 1, the animals were placed in a narrow vessel filled with water at 22° C. for 10 min. 60 min later a test compound was administered intraperitoneally (GSB-106 at 1 mg/kg, GBK-108 and GBK-201 at 0.01, 0.1, 1.0, 10.0 mg/kg). 24 hours later the animals were placed again in the same conditions to record the retention time of the characteristic immobile posture (abandoning any active defensive and exploratory behavior) for a 5 min test period. Imipramine was administered 60 min prior to the 5 min test period (on day 2). The control groups were treated with distilled water. Each experimental group comprised at least 6 mice.

The subject of another data set is HT-22 neuronal cell line. Kind of data set: Viability of HT-22 neuronal cell line without damaging factors (MTT test). Format: cell-based, mouse. Conditions: FIG. 1.1, different molar concentrations. The protocol: The rat adrenal […] pheochromocytoma cell line PC12 was obtained from the Cell Culture Museum, RAN Institute of Molecular Genetics. The immortalized mouse hippocampal cell line HT-22 was a gift from Prof. F. Viegant, Utrecht University, the Netherlands.
The cells were grown in DMEM medium containing 5% FBS and 2 mM L-glutamine. The cells were incubated at 37° C. and 5% CO2. The growth medium was changed at 24 hours after inoculation and every 3 days thereafter. The cells were re-plated every week into culture flasks with a total area of 75 cm^2.
All types of cells were plated in DMEM medium.

The subject of data set [2] is HT-22 cells. Conditions: added 24 hours prior to glutamate. The protocol: The determination of cell viability was carried out by MTT test. MTT is a water soluble tetrazolium salt of yellow color which readily permeates cells. In living cells, MTT is converted into water insoluble formazan crystals of violet color. At the end of an experiment the growth medium was replaced with an MTT solution (0.5 mg/ml) and incubated for 30 min at 37° C. and 5% CO2. The MTT solution was then removed from the wells and DMSO was added to dissolve the formazan precipitate. Then the optical density was measured using a Multiscan (Thermo) spectrophotometer at a wavelength of 600 nm.

Turning to `CC(=O)N[C@@H](CC(=O)O)C(=O)N[C@@H](CO)C(N)=O` [GBK-108, N-acetyl-aspartyl-serine amide] (Ac-Asp-Ser-NH2), the “neuronal survival under oxidative stress” value in the data set with HT-22 cells [1] was “improved the neuronal survival”. The immobility time result in the data set with Balb/c mice (GBK-108 at 10 mg/kg i.p., 24 h before the test) was “increased the immobility time”.

Take `CSCC[C@H](NC(=O)[C@H](CC(=O)O)NC(C)=O)C(N)=O` [GBK-201, N-acetyl-aspartyl-methionine amide] (Ac-Asp-Met-NH2): in the data set on Balb/c mice (GBK-201 at 0.01 and 0.1 mg/kg i.p., 24 h before the test), the immobility time result is reported as “increased the immobility time”. `NCCCC[C@H](NC(=O)[C@H](CCC(=O)O)NC(=O)CCC(=O)O)C(=O)NCCCCNC(=O)[C@H](CCCCN)NC(=O)[C@H](CCC(=O)O)NC(=O)CCC(=O)O` [GK-2c, bis-(N-monosuccinyl-glutamyl-lysine)tetramethylenediamide]: the “viability of HT-22 cells” value in the data set on HT-22 neuronal cell line is given as “reduced the viability”. As for `NCCCC[C@H](NC(=O)[C@H](CO)NC(=O)CCC(=O)O)C(=O)NCCCCCCNC(=O)[C@H](CCCCN)NC(=O)[C@H](CO)NC(=O)CCC(=O)O` [GSB-106, bis-(N-monosuccinyl-seryl-lysine) hexamethylenediamide], in the data set with HT-22 cells [2], the “protective effect against glutamate cytotoxicity” value is “protective effect”. Besides, the “neuronal survival under oxidative stress” value in the data set on HT-22 cells [1] was “improved the neuronal survival”. In the data set on Balb/c mice (GSB-106 1 mg/kg i.p., 24 h before the test), the immobility time entry is recorded as “reducing the immobility time”. As to `CN(C)CCCN1c2ccccc2CCc2ccccc21` [imipramine, Imipramine, reference compound], in the data set with Balb/c mice (imipramine 60 min prior to the 5 min test), the immobility time entry is listed as “reducing the immobility time”.
